Measured values: US8772318B2, “Methods and compositions related to targeting monoacylglycerol lipase” (The Scripps Research Institute, priority 2008, dated 2014)
Entries after “also recorded” stand apart in the source; their conditions may differ.

Key:
[1] = test system: human cancer cell lines (C8161, SKOV3, 231MFP, MUM2C, OVCAR3); assay: Cell migration assay (Transwell); format: cell-based; settings: for impaired migration of shMAGL cancer cells: 100 nM; for migration of cancer cells: 100 μM, 4 hr preincubation and coincubation with migration; for migration of MUM2C and OVCAR3 cells / migratory activity of shMAGL or JZL184-treated MAGL-OE cancer cells: 20 μM
Procedure: Cell migration, cell survival, and invasion studies. Migration assays were performed in Transwell chambers (Corning) with 8 μm pore-sized membranes coated with 10 μg/ml collagen for 4 h at 37° C. A total of 24 hr before the start of the migration assay, cancer cell lines were plated at a concentration of 1×10^6 cells per 6 cm dish. At the start of the migration assay, cells were harvested by washing two times with PBS and were then serum starved in serum-free media for 4 hr. Inhibitor, lipid or vehicle (0.1% DMSO) were preincubated with the cells during this 4 h time. Serum-starved cells were trypsinized, spun at 1400×g for 3 min, resuspended, and counted. 50,000 cells were seeded in the upper chamber of the transwells in 200 μl serum-free media (containing inhibitor, lipid or vehicle). Inhibitor, lipid or vehicle was also added to the lower chamber, and cells were allowed to migrate for 5 h (for C8161 and 231MFP cells) or 20 hr (SKOV3, MUM2C and OVCAR3 cells). The filters were then fixed and stained with Diff-Quik (Dade Behring). Cells that had not migrated through the chamber were removed with a cotton ball. The cells that migrated were counted at a magnification of 400×, and 4 fields were independently counted from each migration chamber. An average of cells in 4 fields for one migration chamber represents n=1.

MAGL [2] = target: T1, MAGL (Homo sapiens, UniProt Q99685); assay: shRNA knockdown of MAGL, activity by ABPP and C20:4 MAG hydrolysis; format: cell-based; settings: aggressive cancer lines, ABPP
T1 construct: endogenous in cells; host or cells: human cancer lines (C8161, MUM2B, MUM2C, SKOV3, OVCAR3, 231MFP, MCF7)
T1 sequence (Q99685 1-303): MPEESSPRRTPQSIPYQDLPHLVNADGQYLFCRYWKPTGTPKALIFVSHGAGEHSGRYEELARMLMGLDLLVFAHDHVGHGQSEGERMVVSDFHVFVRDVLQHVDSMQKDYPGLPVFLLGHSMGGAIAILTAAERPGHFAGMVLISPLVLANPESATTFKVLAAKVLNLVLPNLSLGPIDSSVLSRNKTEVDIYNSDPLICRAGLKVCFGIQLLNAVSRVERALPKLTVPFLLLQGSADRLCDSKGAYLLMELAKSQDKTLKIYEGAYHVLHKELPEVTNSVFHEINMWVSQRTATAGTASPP
Procedure: ABPP and hydrolytic activity assays of cancer cell proteomes. Identification and comparative quantitation of serine hydrolase activities from cancer cell proteomes by ABPP-MudPIT or gel-based ABPP was conducted as previously described using FP-biotin (5 μM) and FP-rhodamine (2 μM), respectively (Jessani et al., Proc. Natl. Acad. Sci. U.S.A 99:10335-10340, 2002; and Jessani et al., Nat. Methods 2:691-697, 2005). C20:4 MAG hydrolytic activity assays were performed as described previously (Blankman et al., Chem. Biol. 14:1347-1356, 2007). For ABPP experiments, cell lysate proteomes were treated with 2 μM FP-rhodamine for 30 min at room temperature (50 μl total reaction volume). Reactions were quenched with one volume of standard 4×SDS/PAGE loading buffer (reducing), separated by SDS/PAGE (10% acrylamide), and visualized in-gel with a Hitachi FMBio IIe flatbed fluorescence scanner (MiraiBio). Integrated band intensities were calculated for the labeled proteins and averaged from three independent cell samples to determine the level of each enzyme activity. IC50 values were determined from dose-response curves from three trials at each inhibitor concentration by using SigmaPlot 10.0. MAGL expression was also assessed by western blotting using standard procedures.
RNA interference studies in human cancer cell lines. […]

[3] = test system: human cancer cell lines (C8161, SKOV3, 231MFP, MUM2C, OVCAR3); assay: Lipid measurements in cancer cells; format: cell-based
Procedure: Pharmacological inhibition of MAGL in cancer cells. Pharmacological inhibition studies were conducted as described previously (Chiang et al., Chem. Biol. 13:1041-1050, 2006). Cancer cells were maintained in RPMI medium 1640 with 10% (v/v) fetal calf serum at 37° C. in a humidified atmosphere of 5% CO2/95% air. At 80% confluency, cells were trypsinized and counted using a hemocytometer, and 1×10^6 cells were plated in 6 cm dishes (subconfluent). […] After incubation for 4 hr, the cells were harvested and analyzed by ABPP or LC-MS.
Lipid measurements in cancer cells. Lipid measurements were conducted similarly to protocols described previously (Chiang et al., 2006; supra). Cancer cells were grown in serum-free media for 4 hrs to minimize the contribution of serum-derived lipids to the cellular profiles. The cells (1×10^6 cells/6 cm dish, 80% confluency) were washed with twice with phosphate buffer saline (PBS), isolated by centrifugation at 1,400×g, and dounce-homogenized in 4 ml of a 2:1:1 mixture of chloroform:methanol:Tris buffer. Samples were homogenized in the presence of the following synthetic standards: C12:0 MAGE (10 nmol), C15:0 FFA (10 nmol). Organic and aqueous layers were separated by centrifugation at 2000×g for 5 min and the organic layer was collected. The aqueous layer was acidified (for metabolites such as LPA) by adding 5% formic acid, followed by the addition of 2 ml chloroform. The mixture was vortexed, and the organic layers were combined, dried down under N2 and dissolved in 100 μl chloroform, of which 30 μl was analyzed by LC-MS.
LC-MS analysis was performed by using an Agilent 1100 LC-MSD SL instrument. […] Mobile phase A was composed of a 95:5 ratio of water:methanol, and mobile phase B consisted of 2-propanol, methanol, and water in a 60:35:5 ratio. Solvent modifiers such as 0.1% formic acid and 0.1% ammonium hydroxide were used to assist ion formation as well as to improve the LC resolution in both positive and negative ionization modes, respectively. The flow rate for each run started at 0.1 ml/min for 5 min, to alleviate backpressure associated with injecting chloroform. The gradient started at 0% B and increased linearly to 100% B over the course of 45 min with a flow rate of 0.4 ml/min, followed by an isocratic gradient of 100% B for 17 min at 0.5 ml/min before equilibrating for 8 min at 0% B with a flow rate of 0.5 ml/min. MS analysis was performed with an electrospray ionization (ESI) source. The capillary voltage was set to 3.0 kV, and the fragmentor voltage was set to 100 V. The drying gas temperature was 350° C., the drying gas flow rate was 10 L/min, and the nebulizer pressure was 35 psi.
Lipidomic analysis was performed in both targeted and untargeted mode by LC-MS analysis. Standard lipid classes were quantitated by targeting using selected ion monitoring (SIM) (except for very high-abundance metabolites which were quantitated by untargeted analysis) and identities of metabolites were confirmed by coelution of metabolites with their respective standards and mass accuracy to within 10 ppm as determined with an accurate mass Agilent 6520 Accurate Mass QTOF-MS-MS. These lipids were quantified by measuring the area under the peak and were normalized to an internal standard (C12:0 MAGE in positive mode or C15:0 FFA in negative mode). […]

MAGL [4] = target: T2, MAGL (Mus musculus, UniProt O35678); assay: Competitive ABPP, mouse brain membrane proteome; format: biochemical
T2 construct: from tissue; host or cells: mouse brain membrane fraction (C57Bl/6 mice for the in vivo studies)
T2 sequence (O35678 1-303): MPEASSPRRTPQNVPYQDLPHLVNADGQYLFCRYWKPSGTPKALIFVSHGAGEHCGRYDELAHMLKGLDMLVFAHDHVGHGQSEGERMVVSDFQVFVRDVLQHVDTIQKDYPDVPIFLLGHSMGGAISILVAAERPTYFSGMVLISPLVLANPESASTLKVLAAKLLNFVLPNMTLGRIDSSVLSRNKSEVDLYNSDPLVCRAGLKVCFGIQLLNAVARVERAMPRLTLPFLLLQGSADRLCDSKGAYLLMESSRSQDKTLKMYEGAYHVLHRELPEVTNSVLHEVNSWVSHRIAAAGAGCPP
From the text: First, serine hydrolases are susceptible to covalent inactivation by specific chemical groups that show little or no cross-reactivity with other enzyme classes. […] Second, the functional state of serine hydrolases can be collectively profiled in native biological systems using activity-based protein profiling (ABPP) methods (Cravat et al., Annu Rev Biochem 77:383-414, 2008). ABPP of serine hydrolases uses reporter-tagged fluorophosphonates (FPs), which serve as general activity-based probes for this large and diverse enzyme class (Liu et al., Proc. Natl. Acad. Sci. U.S.A. 96:14694-9, 1999). When performed in a competitive mode, ABPP can serve as a powerful screen to evaluate the potency and selectivity of small-molecule enzyme inhibitors directly in complex proteomes. The screen can be performed as described in the art, e.g., Liu et al., Proc. Natl. Acad. Sci. U.S.A. 96:14694-9, 1999; Li et al., J. Am. Chem. Soc. 129:9594-5, 2007; Leung et al., Nat. Biotech. 21:687-91, 2003; and Greenbaum et al., Mol. Cell. Proteomics 1:60-68, 2002.
Competitive activity-based protein profiling (ABPP) experiments. In vitro inhibitor selectivity was examined using a competitive ABPP method as described in the art (e.g., Li et al., J. Am. Chem. Soc. 129:9594-5, 2007; and Leung et al., Nat. Biotech. 21:687-91, 2003). Briefly, mouse brain membrane proteomes, prepared as described herein, were diluted to 1 mg/ml in PBS and pre-incubated with varying concentrations of inhibitors (1 nM to 10 μM) for 30 min at 37° C. prior to the addition of a FP-rhodamine at a final concentration of 2 μM in a 50 μl of total reaction volume. After 30 min at room temperature, the reactions were quenched with 4×SDS-PAGE loading buffer, boiled for 5 min at 90° C., subjected to SDS-PAGE, and visualized in-gel using a flatbed fluorescence scanner.
Every 10 min, 50 ul of the reaction was removed and treated with FP-rhodamine (2 μM) for 2 min, quenched with 4×SDS-PAGE loading buffer, and boiled for 5 min at 90° C. The combined reactions were subjected to SDS-PAGE and visualized in-gel using a flatbed fluorescence scanner. The percentage activity remaining was determined by measuring the integrated optical density corresponding to the MAGL or FAAH bands and the results were fit to an exponential curve to determine the pseudo-first order rate constants.

[5] = aggressive melanoma, ovarian, breast cancer cells

## CCCCC[C@H](O)/C=C/[C@H]1[C@H](O)CC(=O)[C@@H]1C/C=C\CCCC(=O)O [PGE2, prostaglandin E2]
[1]; 4 hr
  impaired migration of shMAGL cancer cells: rescued the impaired migration

## pertussis toxin
[1]; 100 ng/ml, 4 h
  enhanced migratory activity of MAGL-OE cancer cells: completely blocked

## shMAGL1: short hairpin RNA oligonucleotide for MAGL, 5′-CAACTTTCAAGGTCCTTGC-3′ (SEQ ID NO:1) (expressed or natural sequence)
MAGL [2]
  other serine hydrolase activities: unaffected
[3]; [5]
  FFA levels in shMAGL cells: corresponding reductions
  MAG levels in shMAGL cells: significant elevations

## CCCCCCCCCCCCCCCC(=O)OC[C@@H](O)COP(=O)(O)O [LPA]
[1]; 4 hr
  impaired migration of shMAGL cancer cells: rescued the impaired migration

## COc1ccc(C(=O)c2c(C)n(CCN3CCOCC3)c3cc(I)ccc23)cc1 [AM630]
[1]; antagonist 1 μM, 4 hr
  migratory defect in shMAGL cancer cells: not rescued
[3]; antagonist 1 μM, 4 hr
  FFA levels in shControl and shMAGL cancer cells: unchanged

## CCOC(=O)[C@@]1(CCCCCCOc2ccc(Cl)cc2)CO1 [etomoxir]
[1]
  migration of cancer cells: did not affect migration
[3]; 100 μM, 4 hr, exception C20:4 FFA, elevated in C8161 and SKOV3 cells
  FFA levels in cancer cells: did not alter FFA levels

## COc1ccc(C(O)(c2ccc(OC)cc2)C2CCN(C(=O)Oc3ccc([N+](=O)[O-])cc3)CC2)cc1 [JZL175]
MAGL [4]
  selectivity for MAGL over FAAH and ABHD6 (competitive ABPP): selectivity for MAGL over both FAAH and ABHD6; also recorded: no or greatly reduced inhibitory activity on FAAH as well as ABHD6

## COc1ccc(CN2CCNCC2)c(OC)c1OC [trimetazidine]
[1]
  migration of cancer cells: did not affect migration

## CCCCCCCCCCCCCCCCCC(=O)O [stearic acid]
[1]; 4 h
  migration of MUM2C and OVCAR3 cells: increases the migration
  migratory activity of shMAGL or JZL184-treated MAGL-OE cancer cells: fully restored their migratory activity

## CCCCCCCCCCCCCCCC(=O)O [palmitic acid]
[1]; 4 h
  migration of MUM2C and OVCAR3 cells: increases the migration
  migratory activity of shMAGL or JZL184-treated MAGL-OE cancer cells: fully restored their migratory activity
